Reference: ChEMBL document CHEMBL5724696, “Autophagy assay results for EUbOPEN Chemogenomics Library” (2024)

Columns and labels:
Format in all cases: functional, Homo sapiens
TERT-RPE1 = experiment: (§1) Here: values are normalized to the negative (DMSO; defined as 0% autophagy induction) and positive (250nM Torin1; mTOR inhibitor; defined as maximal inducer of autophagy = 100%) control compounds and represented as % of autophagy induction. […] The impact of autophagy induction on cells is complex and depends on the affected target. As such, the magnitude of a phenotype may not be equally mirrored in the %-value of autophagy induction and vice versa. The dynamics of the induction may indicate the mode of activation: e.g. activation via phosphorylation or a signaling cascade may occur fast, while activation via transcription factors may take considerably longer. […] Of note, treatment concentrations may be sub-optimal for specific compounds, leading to false negative annotations.; conditions: Culturing Media DMEM/F12 (1:1), 1 % Penicillin/Streptomycin, 10% Fetal bovin serum Add-On: No, Screening Media Control DMEM/F12 (1:1), Screening Media Samples DMEM/F12 (1:1)
U2OS [1] = experiment: as §1; conditions: Culturing Media DMEM, 1 % Penicillin/Streptomycin, 10% Fetal bovin serum Add-On: No, Screening Media Control DMEM, Screening Media Samples DMEM
U2OS [2] = experiment: as §1; conditions: Culturing Media DMEM, 1 % Penicillin/Streptomycin, 10% Fetal bovin serum Add-On: No, Screening Media Control DMEM, Screening Media Samples DMEM; remark: listed apart in the source
[3] = Compound Concentration 0.5 uM, Timepoint 12 hours
[4] = Compound Concentration 0.5 uM, Timepoint 24 hours
[5] = Compound Concentration 0.5 uM, Timepoint 36 hours
[6] = Compound Concentration 0.5 uM, Timepoint 60 hours
[7] = Compound Concentration 2 uM, Timepoint 12 hours
[8] = Compound Concentration 2 uM, Timepoint 24 hours
[9] = Compound Concentration 2 uM, Timepoint 36 hours
[10] = Compound Concentration 2 uM, Timepoint 60 hours
[11] = Compound Concentration 10 uM, Timepoint 12 hours
[12] = Compound Concentration 10 uM, Timepoint 24 hours
[13] = Compound Concentration 10 uM, Timepoint 36 hours
[14] = Compound Concentration 10 uM, Timepoint 60 hours

SMILES	autophagy induction (TERT-RPE1; [3])	autophagy induction (TERT-RPE1; [4])	autophagy induction (TERT-RPE1; [5])	autophagy induction (TERT-RPE1; [6])	autophagy induction (TERT-RPE1; [7])	autophagy induction (TERT-RPE1; [8])	autophagy induction (TERT-RPE1; [9])	autophagy induction (TERT-RPE1; [10])	autophagy induction (TERT-RPE1; [11])	autophagy induction (TERT-RPE1; [12])	autophagy induction (TERT-RPE1; [13])	autophagy induction (TERT-RPE1; [14])	autophagy induction (U2OS [1]; [3])	autophagy induction (U2OS [1]; [4])	autophagy induction (U2OS [1]; [5])	autophagy induction (U2OS [1]; [6])	autophagy induction (U2OS [1]; [7])	autophagy induction (U2OS [1]; [8])	autophagy induction (U2OS [1]; [9])	autophagy induction (U2OS [1]; [10])	further results
CS(=O)(=O)NC[C@H]1CC[C@H](Nc2nc3c(s2)CCSc2ccccc2-3)CC1	-4.034%	-8.281%	-9.381%	-11.7228%	-3.533%	-4.081%	-4.248%	-9.574%	-3.228%	-1.909%	1.0286%	5.565%	-4.815%	-2.571%	-1.135%	-2.5406%	-10.1359%	-5.225%	-2.722%	-2.833%	autophagy induction (U2OS [1]; [11]): -13.0428%; autophagy induction (U2OS [1]; [12]): -4.43%; autophagy induction (U2OS [1]; [13]): -4.437%; autophagy induction (U2OS [1]; [14]): -6.0772%; autophagy induction (U2OS [2]; [3]): 7.101%; autophagy induction (U2OS [2]; [4]): 7.652%; autophagy induction (U2OS [2]; [5]): 1.469%; autophagy induction (U2OS [2]; [6]): -11.3587%; autophagy induction (U2OS [2]; [7]): 8.098%; autophagy induction (U2OS [2]; [8]): 3.777%; autophagy induction (U2OS [2]; [9]): 0.6599%; autophagy induction (U2OS [2]; [10]): -6.18%; autophagy induction (U2OS [2]; [11]): 6.84%; autophagy induction (U2OS [2]; [12]): 4.331%; autophagy induction (U2OS [2]; [13]): 3.398%; autophagy induction (U2OS [2]; [14]): 7.256%
Cc1nc(C(=O)N2CCC[C@H]2Cc2nnc(-c3ccccc3)o2)c(-c2ccccc2F)s1	-3.536%	-6.3015%	-4.185%	-7.252%	-4.803%	-6.585%	-5.999%	-9.333%	0.2716%	0.5174%	2.2318%	3.905%	4.15%	-0.2081%	-2.227%	-2.102%	0.7749%	-1.115%	-1.752%	-2.832%	autophagy induction (U2OS [1]; [11]): 4.1851%; autophagy induction (U2OS [1]; [12]): 1.702%; autophagy induction (U2OS [1]; [13]): -1.044%; autophagy induction (U2OS [1]; [14]): -3.102%; autophagy induction (U2OS [2]; [3]): 13.4134%; autophagy induction (U2OS [2]; [4]): 8.147%; autophagy induction (U2OS [2]; [5]): 0.9843%; autophagy induction (U2OS [2]; [6]): 3.676%; autophagy induction (U2OS [2]; [7]): 5.837%; autophagy induction (U2OS [2]; [8]): 5.052%; autophagy induction (U2OS [2]; [9]): 3.424%; autophagy induction (U2OS [2]; [10]): -6.267%; autophagy induction (U2OS [2]; [11]): 0.7146%; autophagy induction (U2OS [2]; [12]): 3.711%; autophagy induction (U2OS [2]; [13]): -0.07108%; autophagy induction (U2OS [2]; [14]): -6.907%
CSc1ccc(C(=O)N[C@@H]2CCCC[C@@H]2NC(=O)CNC(=O)c2cc(C(F)(F)F)ccc2NC(=O)NC(C)C)cc1	-7.317%	-10.4362%	-10.5931%	-10.1253%	-7.697%	-8.893%	-11.9452%	-15.6367%	-4.351%	-5.968%	-5.344%	-2.567%	-1.519%	-1.673%	-0.1292%	-0.4268%	6.41%	-0.3397%	0.2664%	0.6149%	autophagy induction (U2OS [1]; [11]): -6.202%; autophagy induction (U2OS [1]; [12]): -3.0141%; autophagy induction (U2OS [1]; [13]): -1.6234%; autophagy induction (U2OS [1]; [14]): -0.3642%; autophagy induction (U2OS [2]; [3]): -3.4763%; autophagy induction (U2OS [2]; [4]): -6.206%; autophagy induction (U2OS [2]; [5]): -3.128%; autophagy induction (U2OS [2]; [6]): -12.7895%; autophagy induction (U2OS [2]; [7]): 8.51%; autophagy induction (U2OS [2]; [8]): 8.515%; autophagy induction (U2OS [2]; [9]): 8.998%; autophagy induction (U2OS [2]; [10]): -1.4223%; autophagy induction (U2OS [2]; [11]): 3.613%; autophagy induction (U2OS [2]; [12]): 5.882%; autophagy induction (U2OS [2]; [13]): 6.117%; autophagy induction (U2OS [2]; [14]): 10.5977%
N#Cc1c(N)nc(SCC(N)=O)c(C#N)c1-c1ccc(OCC2CC2)cc1	-0.3512%	-0.4647%	-3.4426%	-13.7976%	6.426%	7.278%	5.568%	-4.471%	18.2835%	21.4433%	22.9122%	26.9726%	1.815%	-1.199%	-2.125%	-2.448%	4.971%	0.9116%	-0.4866%	-0.2456%	autophagy induction (U2OS [1]; [11]): 12.9304%; autophagy induction (U2OS [1]; [12]): 7.609%; autophagy induction (U2OS [1]; [13]): 1.394%; autophagy induction (U2OS [1]; [14]): 0.5911%; autophagy induction (U2OS [2]; [3]): 13.384%; autophagy induction (U2OS [2]; [4]): 10.3272%; autophagy induction (U2OS [2]; [5]): 7.6764%; autophagy induction (U2OS [2]; [6]): 5.5559%; autophagy induction (U2OS [2]; [7]): 6.979%; autophagy induction (U2OS [2]; [8]): 4.233%; autophagy induction (U2OS [2]; [9]): 4.058%; autophagy induction (U2OS [2]; [10]): 1.654%; autophagy induction (U2OS [2]; [11]): 28.6221%; autophagy induction (U2OS [2]; [12]): 28.519%; autophagy induction (U2OS [2]; [13]): 26.7564%; autophagy induction (U2OS [2]; [14]): 32.3548%
